“And” between values parts separate entries of the source, which are not always exact repeats. Equal entries are not always repeated. Structures can show the parent of a compound that is named as a salt.
How the values were obtained:
Format in all cases: in vivo
TGF-β = assay: Bleomycin-induced lung fibrosis mouse model: immunohistochemical localization of TGF-β
Protocol: (§1) Bleomycin-induced Lung Fibrosis Mouse Model
(§2) Thirty male CD-1 mice weighing 27.5±0.4 g were used in this study (obtained from Harlan Nossan, Milan, Italy), and were allowed access to food and water ad libitum. The mice were kept in laminar flow rooms at constant temperature and humidity with 3 animals in each cage. The temperature of the room was controlled between 20-26° C. and the humidity of the room was controlled between 40-70%.
(§3) Mice received a single intra-tracheal instillation of saline (0.9%), or saline containing bleomycin sulfate (BLM, 0.1 IU per mouse) in a volume of 100 μl. Mice were then sacrificed after 7 days by pentobarbitone overdose. […]
(§4) At 7 days after BLM administration, lung tissues were fixed in 10% PBS-buffered formaldehyde and 7 μm sections were prepared from paraffin-embedded tissues. […] Specific labeling was detected with a biotin-conjugated goat anti-rabbit IgG and avidin-biotin peroxidase complex (DBA). […]

[1] = tested on: bleomycin-induced lung fibrosis; assay: Bleomycin-induced lung fibrosis mouse model: overall outcome
Text: as §1
(§5) Pulmonary fibrosis is a common response to various insults to the lung and is the end-point of a numerous and heterogenous group of disorders known as interstitial lung disease (ILD), characterized by chronic inflammation and progressive fibrosis of the pulmonary interstitium. […] instillation of the anti-tumour agent bleomycin (BLM) is the most commonly used animal model for pulmonary fibrosis.
as §2
(§6) Mice received a single intra-tracheal instillation of saline (0.9%), or saline containing bleomycin sulfate (BLM, 0.1 IU per mouse) in a volume of 100 μl. Mice were then sacrificed after 7 days by pentobarbitone overdose.
(§7) Animals were randomized into three experimental groups of 10 animals in each group, and were treated with either hydroxypropyl methyl cellulose (HPMC) (0.5%)/HPbetaCyclodextrin (20%) as a 5 ml/kg s.c. injection 30 min after intra-tracheal instillation of BLM and every 12 h thereafter until completion of the study, or with the compound I-4×HCl (4-[(4-Methoxyphenyl)amino]-6-(methylcarbamoyl)quinoline-3-carboxylic acid hydrochloride) at 30 mg/kg as a s.c. injection 30 min after intra-tracheal instillation of BLM and every 12 h thereafter until completion of the study.
The levels of various fibrotic markers were measured in the three groups (A, B and C). For each marker, the level measured in the bleomycin-injured, vehicle-treated group (BLM+Vehicle) was taken as 100%. In Table 3, the corresponding marker levels for the “sham injured” group treated with vehicle (Sham+Vehicle), and the bleomycin-injured group treated with compound I-4 (BLM+I-4×HCl), are indicated as a percentage of the level in the BLM+Vehicle group.

Nitrotyrosine = assay: Bleomycin-induced lung fibrosis mouse model: immunohistochemical localization of nitrotyrosine
Protocol: as §1, §2, §3, §4

COX-2 = assay: Bleomycin-induced lung fibrosis mouse model: immunohistochemical localization of COX-2
Protocol: as §1, §2, §3, §4

iNOS = assay: Bleomycin-induced lung fibrosis mouse model: immunohistochemical localization of iNOS
Protocol: as §1, §2, §3, §4

Poly-ADP-ribose (PAR) = assay: Bleomycin-induced lung fibrosis mouse model: immunohistochemical localization of PAR
Protocol: as §1, §2, §3, §4

IL-1β = assay: Bleomycin-induced lung fibrosis mouse model: measurement of cytokines, IL-1β; details: percentage of the level in the BLM+Vehicle group (100%); 30 mg/kg s.c. every 12 h; 7 days after BLM
Protocol: as §1, §2, §6, §7
(§8) TNF-α and IL-1β levels were evaluated from lung tissues collected at 7 days after BLM administration. […]

TNF-α = assay: Bleomycin-induced lung fibrosis mouse model: measurement of cytokines, TNF-α; details: percentage of the level in the BLM+Vehicle group (100%); 30 mg/kg s.c. every 12 h; 7 days after BLM
Protocol: as §1, §2, §6, §7, §8

[2] = tested on: bleomycin-induced lung fibrosis; assay: Bleomycin-induced lung fibrosis mouse model: histological examination, scoring for lung fibrosis; design: key to Histological fibrosis score / Histological fibrosis score, Mean: 0 = normal lung, 8 = total fibrous obliteration of fields
Text: as §1, §5, §2, §6, §7
Lung biopsies were taken 7 days after BLM injection. After fixation at room temperature in buffered formaldehyde solution (10% in phosphate buffered saline [PBS]), the sections were prepared and stained by haematoxylin-eosin and observed with an Axiovision Zeiss microscope (Milan, Italy).
Scoring for lung fibrosis was graded on a scale from 0 to 8 by examining randomly chosen sections, with 5 fields per sample at a magnification of ×100. Criteria for grading lung fibrosis were as follows: grade 0, normal lung; grade 1, minimal fibrous thickening of alveolar or bronchiolar walls; grade 3, moderate thickening of walls without obvious damage to lung architecture; grade 5, increased fibrosis with definite damage to lung structure and formation of fibrous bands or small fibrous masses; grade 7, severe distortion of structure and large fibrous areas; and grade 8, total fibrous obliteration of fields (Cuzzocrea S, et al. Am J Physiol Lung Cell Mol Physiol. (2007) 292:L1095-104).
All data in the text are presented as mean±s.e. mean of n observations, where n represents the number of animals studied. All statistical analysis was calculated using GraphPad Prism 5 (GraphPad Software, San Diego, Calif., USA). Data without repeated measurements were assessed by a Mann-Whitney U t-test. Data with repeated measurements were assessed by a two-way ANOVA followed by a Bonferroni post-hoc test. A P-value of less than 0.05 was considered to be statistically significant.

[3] = tested on: Thiobarbituric acid-reactant substances (TBARS); assay: Bleomycin-induced lung fibrosis mouse model: thiobarbituric acid-reactant substances in lung; details: percentage of the level in the BLM+Vehicle group (100%); 30 mg/kg s.c. every 12 h; 7 days after BLM
Protocol: as §1, §2, §3
Thiobarbituric acid-reactant substances (TBARS) measurement, which is considered a good indicator of lipid peroxidation, was determined in the lung tissues collected at 7 days after BLM administration. […] The absorbance of the supernatant was measured spectrophotometrically at […]. Levels of TBARS are expressed as μM/100 mg of wet tissue.

[4] = Bleomycin-induced lung fibrosis mouse model: observations, body weight; details: 30 mg/kg 30 min after intra-tracheal BLM and every 12 h thereafter
Protocol: as §1, §2, §3
At the time of routine monitoring, the animals were checked for any effects of acute lung injury and treatments on normal behavior such as mobility, food and water consumption (by looking only), body weight gain/loss (body weights were measured daily), eye/hair matting and any other abnormal effect. Death and observed clinical signs were recorded on the basis of the numbers of animals within each subset.

lung oedema = assay: Bleomycin-induced lung fibrosis mouse model: measurement of lung oedema
Protocol: as §1, §2, §3
The wet lung weight was measured 7 days after BLM injection by careful excision of the lung from other adjacent extraneous tissues. The lung was then exposed for 48 h to 180° C. and the dry weight measured. Water content was then calculated by subtracting the dry weight from the wet weight.

Myeloperoxidase (MPO) = assay: Bleomycin-induced lung fibrosis mouse model: myeloperoxidase (MPO) assay in lung; details: percentage of the level in the BLM+Vehicle group (100%); 30 mg/kg s.c. every 12 h; 7 days after BLM
Protocol: as §1, §2, §3
Myeloperoxidase (MPO) activity was determined 7 days after BLM injection. […] The rate of change in absorbance was measured spectrophotometrically at 650 nm. MPO activity was defined as the quantity of enzyme degrading 1 μmol of peroxide per min at 37° C. and was expressed in units per gram weight of wet tissue.

[5] = BLM-injured mice treated with compound, compared with sham group
[6] = percentage of the level in the BLM+Vehicle group (100%), 30 mg/kg s.c. every 12 h, 7 days after BLM
[7] = 30 mg/kg 30 min after intra-tracheal BLM and every 12 h thereafter

Question: Which results are given for CNC(=O)c1ccc2ncc(C(=O)O)c(Nc3ccc(OC)cc3)c2c1 [Compound I-4, 4-[(4-Methoxyphenyl)amino]-6-(methylcarbamoyl)quinoline-3-carboxylic acid]?
Answer: TGF-β level versus sham group (in words) (TGF-β; [5]): reduced to levels similar to those of the sham group; levels of the markers induced by bleomycin (in words) ([1]; all markers of Table 3, versus BLM+Vehicle): statistically significantly reduced; overall effect in the bleomycin model (in words) ([1]; conclusion from Tables 2 and 3): potent anti-fibrotic and ant-inflammatory effect; Nitrotyrosine level versus sham group (in words) (Nitrotyrosine; [5]): reduced to levels similar to those of the sham group; COX-2 level versus sham group (in words) (COX-2; [5]): reduced to levels similar to those of the sham group; iNOS level versus sham group (in words) (iNOS; [5]): reduced to levels similar to those of the sham group; poly-ADP-ribose (PAR) level versus sham group (in words) (Poly-ADP-ribose (PAR); [5]): reduced to levels similar to those of the sham group

Question: Which “Lung IL-1β levels” value (IL-1β) does the source give for CNC(=O)c1ccc2ncc(C(=O)O)c(Nc3ccc(OC)cc3)c2c1 [I-4 × HCl, 4-[(4-Methoxyphenyl)amino]-6-(methylcarbamoyl)quinoline-3-carboxylic acid hydrochloride] here?
Answer: Its value is 50%.

Question: And the “Lung TNF-α levels” value (TNF-α)?
Answer: The value was 45%.

Question: And the “TGF-β (immunohistochemical localization)” value (TGF-β; [6])?
Answer: The value was 0.1%.

Question: And the “acute lung injury (in words)” value [2, 7]?
Answer: Its value is “significant attenuation”.

Question: And the “histological scoring of fibrosis (in words)” value [2, 7]?
Answer: Its value is “significant attenuation”.

Question: And the “Histological fibrosis score, Mean” value ([2]; group mean of 10 mice, BLM-injured CD-1 mice, 30 mg/kg s.c. 30 min after BLM and every 12 h, 7 days after BLM, scale from 0 to 8)?
Answer: Its value is 2.40.

Question: What about the Histological fibrosis score ([2]; individual mice 1-10, BLM-injured CD-1 mice, 30 mg/kg s.c. 30 min after BLM and every 12 h, 7 days after BLM, scale from 0 to 8, hydrochloride, 30 mg/kg) of the same compound?
Answer: Its Histological fibrosis score is 2.0 (4×) and 3.0 (5×) and 1.0.

Question: What about the “Histological score for lung acute injury” value [2, 6] of the same compound?
Answer: Its value is 33%.

Question: And the “Lung TBARS levels” value [3]?
Answer: Its value is 45%.

Question: And the “lung inflammation (in words)” value [1, 7]?
Answer: Its value is “significant attenuation”.

Question: What about the “Nitrotyrosine (immunohistochemical localization)” value (Nitrotyrosine; [6]) of the same compound?
Answer: The value was 0.1%.

Question: And the “COX-2 (immunohistochemical localization)” value (COX-2; [6])?
Answer: Its value is 0.1%.

Question: What about the “iNOS (immunohistochemical localization)” value (iNOS; [6]) of the same compound?
Answer: Its value is 0.1%.

Question: What about the “weight loss (in words)” value [4] of the same compound?
Answer: Its value is “significant attenuation”.

Question: And the “lung oedema (in words)” value (lung oedema; [7])?
Answer: The value was “significant attenuation”.

Question: And the “Wet/dry weight ratio (oedema)” value (lung oedema; [6])?
Answer: Its value is 52%.

Question: What about the “Poly-ADP-ribose (PAR) (immunohistochemical localization)” value (Poly-ADP-ribose (PAR); [6]) of the same compound?
Answer: Its value is 0.1%.

Question: What about the “Lung myeloperoxidase (MPO)” value (Myeloperoxidase (MPO)) of the same compound?
Answer: The value was 47%.

Reference: patent US9376393B2, “Quinoline compounds which are anti-angiogenic integrin alpha5 beta1 inhibitors for use in the treatment of fibrosis or fibrosis-related diseases” (Clanotech AB, priority 2012, dated 2016)
